Legend:
[1] = biological target: T1, PXR ligand binding domain (LBD) (Homo sapiens, UniProt O75469); experiment: LanthaScreen TR-FRET PXR competitive binding assay; settings: displacement of fluorescent reference ligand, 1:30 hours at room temperature, read-out: affinity for PXR
T1 construct: purchased Invitrogen
T1 sequence (O75469 146-433 limits assumed): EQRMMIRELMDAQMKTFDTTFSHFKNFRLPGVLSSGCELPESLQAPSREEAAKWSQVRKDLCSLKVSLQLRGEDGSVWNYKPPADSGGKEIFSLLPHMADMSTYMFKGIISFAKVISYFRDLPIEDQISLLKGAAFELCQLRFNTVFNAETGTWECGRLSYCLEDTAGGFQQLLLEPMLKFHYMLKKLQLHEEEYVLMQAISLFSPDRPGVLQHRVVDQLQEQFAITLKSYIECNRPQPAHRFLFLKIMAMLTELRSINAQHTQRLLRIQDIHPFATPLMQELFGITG
Experimental: The molecules were incubated for 1:30 hours at room temperature with the PXR LBD in the presence of a fluorescent reference ligand. The displacement of the fluorescent ligand caused by the prePROTAC or the PXR SR12813 ligand was measured by reading emissions at 520 nm and 495 nm after excitation at 337 nm on a PHERA-Star apparatus (BMG LABTECH).

PXR [2] = experiment: CYP3A4 mRNA expression by RT-qPCR in LS174T cells; assay type: cell-based; settings: 5 μM, 48 h, with rifampicin 5 μM
Experimental: . After lysis of the cells and purification of the total RNAs (Qiagen RNAeasy), the complementary DNAs were prepared (SuperScript II in the presence of random primers of 6 nucleotides, Invitrogen). The expression of CYP3A4 mRNA and RPLO and actin housekeeping genes was measured by RT-qPCR on an LC480 apparatus (Roche) in the presence of SyberGreen (Millipore). The relative expression levels were calculated according to the RQ=Relative quantification=2-ΔΔCt method, the untreated cells serving as a calibrator set to 1. […]

PXR [3] = experiment: CYP3A4 protein expression by western blotting in LS174T cells; assay type: cell-based; parameters: dose or concentration left out as unconfirmed; settings: 48 h
Experimental: The LS174T cells were treated for 48 h with […] JMV7048 in the presence or absence of rifampicin (PXR ligand) at […] final. After lysis of the cells (RIPA+antiproteases), the proteins were purified and assayed before being deposited (90 μg) on 10% SDS-PAGE gel. […] The intensities of the signals were measured by a camera (BioRad MP Touch).

LS174T = experiment: Cell viability, Sulforhodamine B, LS174T; assay type: cell-based; settings: LS174T line, increasing concentrations, 72 h
Experimental: (§1) The effect of PROTACs on cell viability has been tested on various lines CRC1, HT29 and LS174T. The cells were incubated in the presence of increasing concentrations of molecules for 72 h before being fixed and marked by Sulforhodamine B (Sigma). After washing and lysis of the cells, the incorporated colorant released by the cells is directly proportional to the cell biomass. It is measured at […] by a 96-well plate spectrophotometer (Tecan). The signal obtained for the untreated cells is set at 100%.

HT29 cells [4] = experiment: Cell viability, Sulforhodamine B, HT29; assay type: cell-based; settings: increasing concentrations, 72 h
Experimental: as §1

CRC1 = experiment: Cell viability, Sulforhodamine B, CRC1; assay type: cell-based; settings: CRC1 protoculture, increasing concentrations, 72 h
Experimental: as §1

CRC1 cells = experiment: Aldefluor marking of cancer stem cells, CRC1; assay type: cell-based; settings: 5 μM, 48 h, compared to untreated cells
Experimental: (§2) The effects of the PROTACs on the survival and self-renewal of colic cancer stem cells were studied in vitro on the HT29 line or cancer cells isolated from patients (CRC1). The cells were treated with or without 5 μM PROTACs for 48 h before being analyzed: Aldefluor marking, enzymatic activity preferentially present in cancer stem cells (FIG. 10A); formation of tumorspheres under aseric and non-adherent conditions (FIG. 10B), and finally resistance to chemotherapy (FIGS. […] and 10D).
(§3) The tumorspheres with a diameter of more than 50 μM were counted 10 days after treatment and culturing of 200 cells per well (previously treated with poly2Hema in order to prevent any cell adhesion) in 100 μL of depleted BCS medium. These culture conditions allow only the survival of cancer stem cells. FIGS. 10C and 10D show the effects of the PROTACs JMV7048 and JMV7965 on survival (10C) and the ability to form tumorspheres (10D) of the HT29 cells maintained in the presence of different concentrations of 5-FU and SN38 (Folfiri 1X=50 μg 5-FU+500 nM SN38) and cultured in 100 μL of depleted BCS medium in dishes pretreated with poly2Hema in order to prevent any cell adhesion. The tumorspheres with a diameter of more than 50 μM were counted 10 days after seeding 200 cells/well.

HT29 cells [5] = experiment: Tumorsphere formation (Sphere Forming Cells), HT29; assay type: cell-based; settings: 5 μM, 48 h, spheres counted after 10 days
Experimental: as §2, §3

HT29 cells [6] = experiment: Survival and chemoresistance of cancer stem cells in colon cancer cell lines; assay type: cell-based; settings: 5 μM for 2 days, 5-FU and SN38 (Folfiri)
Experimental: as §2, §3

PXR protein [7] = biological target: T2, PXR protein (Homo sapiens, UniProt O75469); experiment: PXR degradation in LS174T cells by in vitro western blotting; assay type: cell-based; parameters: endogenous in cells; host or cells: LS174T; settings: for expression level of the PXR protein: 5 μM, 24 h of treatment
T2 sequence (O75469 1-434): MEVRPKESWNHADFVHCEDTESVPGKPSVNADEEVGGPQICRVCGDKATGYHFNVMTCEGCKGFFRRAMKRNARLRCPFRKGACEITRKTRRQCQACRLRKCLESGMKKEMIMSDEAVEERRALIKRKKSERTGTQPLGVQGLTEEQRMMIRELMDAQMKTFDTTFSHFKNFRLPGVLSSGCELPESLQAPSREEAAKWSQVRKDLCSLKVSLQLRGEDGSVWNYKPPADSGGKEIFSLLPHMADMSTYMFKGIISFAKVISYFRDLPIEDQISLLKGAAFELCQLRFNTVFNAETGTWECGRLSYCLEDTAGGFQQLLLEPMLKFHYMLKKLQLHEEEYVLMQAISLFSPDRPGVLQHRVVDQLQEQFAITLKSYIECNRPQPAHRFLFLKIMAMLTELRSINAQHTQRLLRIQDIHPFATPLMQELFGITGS
Experimental: The effect of the PROTACs on the expression level of the PXR protein was studied by western blotting. The LS174T cells were […] in the absence or presence of 50 nM of an siRNA targeting PXR (siPXR: NR112 Silencer, Thermofischer) or treated by the PROTACs. After lysis of the cells (RIPA+antiproteases), the proteins were purified and assayed before being deposited ([…]) on 10% SDS-PAGE gel. […] The intensities of the signals were measured by a camera (BioRad MP Touch). […] FIGS. 6D and 6E illustrate the effect of JMV7048 on the expression level of PXR based on the treatment time (maximum effect reached after 3 h of treatment) and the concentration used (decrease dependent on the dose, with a maximum effect observed from 500 nM).

PXR protein [8] = biological target: T2, PXR protein; experiment: Importance of the proteasome pathway for PXR degradation, western blotting in LS174T cells; assay type: cell-based; parameters: endogenous in cells; host or cells: LS174T; settings: 24 hours
Experimental: The involvement of the proteasome pathway in the effects of PROTACs on the expression level of the PXR protein was studied by western blotting. The LS174T cells were treated for 24 hours with JMV7048 in the presence or absence of the […] (MLN4924) or the proteasome inhibitor (Bortezomib).

| Compound | effect on expression of CYP3A4 mRNA induced by rifampicin (PXR [2]) | toxicity (cell viability) (LS174T) | percentage of ALDH-positive cells (CRC1 cells) | expression level of the PXR protein (PXR protein [7]) | other results |
| --- | --- | --- | --- | --- | --- |
| Cc1cc(C)c(S(=O)(=O)Nc2ccc3c(c2)nc(CCCCCCCN)n3Cc2ccccc2)c(C)c1 [JMV6944, N-[2-(7-aminoheptyl)-1-benzyl-1H-1,3-benzodiazol-5-yl]-2,4,6-trimethylbenzene-1-sulfonamide] | additive effect on the expression of CYP3A4 mRNA |  |  |  | Kd [1]: 18.4 nM |
| Cc1cc(C)c(S(=O)(=O)Nc2ccc3c(c2)nc(CCCCCCCNC(=O)CCCCCN2CCN(c4ccc5c(c4)C(=O)N(C4CCC(=O)NC4=O)C5=O)CC2)n3Cc2ccccc2)c(C)c1 (centres unmarked) [JMV7048] | significantly reduce the induction of CYP3A4 | absence of toxicity | significantly reduce the percentage of ALDH-positive cells | significantly reduce the expression level of the PXR protein | effect on induction of the CYP3A4 enzyme mediated by rifampicin (PXR [3]): reduce the induction of the CYP3A4 enzyme; cell viability (HT29 cells [4]): does not affect the viability; cell viability (CRC1): does not affect the viability; number of cells capable of surviving anoikis and forming tumorspheres (Sphere Forming Cells) (HT29 cells [5]): significantly reduce the number of HT29 cells; survival and chemoresistance of stem cells (HT29 cells [6]): significantly reduces the survival and chemoresistance of stem cells; treatment time at which maximum effect on PXR expression level is reached (PXR protein [7]): 3 h; concentration from which maximum effect on PXR expression level is observed (PXR protein [7]; decrease dependent on the dose): ≥ 500 nM; decrease in PXR expression level with MLN4924 or Bortezomib (PXR protein [8]; with or without MLN4924 or Bortezomib): reverted by the CRBN ubiquitin ligase inhibitors (MLN4924, FIG. 8A) or by an inhibitor of the 26S proteasome |
| Cc1cc(C)c(S(=O)(=O)Nc2ccc3c(c2)nc(CCCCCCCNC(=O)CCCCCN2CCN(C4CCC5C(=O)N(C6CCC(=O)N(C)C6=O)C(=O)C5C4)CC2)n3Cc2ccccc2)c(C)c1 (centres unmarked) [JMV7159] | additive effect on the expression of CYP3A4 mRNA |  |  |  | expression level of the PXR protein (PXR protein [8]): does not cause a decrease in the expression level of PXR |
| Cc1cc(C)c(S(=O)(=O)Nc2ccc3c(c2)nc(CCCCCCCNC(=O)CCCCCCN2CCN(c4ccc5c(c4)C(=O)N(C4CCC(=O)NC4=O)C5=O)CC2)n3Cc2ccccc2)c(C)c1 (centres unmarked) [JMV7505] |  | absence of toxicity | significantly reduce the percentage of ALDH-positive cells | significantly reduce the expression level of the PXR protein |  |
| Cc1cc(C)c(S(=O)(=O)Nc2ccc3c(c2)nc(CCCCCCCNC(=O)CCCCCCCN2CCN(c4ccc5c(c4)C(=O)N(C4CCC(=O)NC4=O)C5=O)CC2)n3Cc2ccccc2)c(C)c1 (centres unmarked) [JMV7506] |  |  | significantly reduce the percentage of ALDH-positive cells | significantly reduce the expression level of the PXR protein |  |
| Cc1cc(C)c(S(=O)(=O)Nc2ccc3c(c2)nc(CCCCCCCNC(=O)CCCCCCN2CCN(c4ccc(C(=O)NC5CCC(=O)NC5=O)cc4)CC2)n3Cc2ccccc2)c(C)c1 (centres unmarked) [JMV7605] |  | absence of toxicity |  | significantly reduce the expression level of the PXR protein |  |
| Cc1cc(C)c(S(=O)(=O)Nc2ccc3c(c2)nc(CCCCCCCNC(=O)CN2CCC(CN4CCN(c5ccc6c(c5)C(=O)N(C5CCC(=O)NC5=O)C6=O)CC4)CC2)n3Cc2ccccc2)c(C)c1 (centres unmarked) [JMV7965] | significantly reduce the induction of CYP3A4 |  | significantly reduce the percentage of ALDH-positive cells | significantly reduce the expression level of the PXR protein | effect on induction of the CYP3A4 enzyme mediated by rifampicin (PXR [3]): reduce the induction of the CYP3A4 enzyme; number of cells capable of surviving anoikis and forming tumorspheres (Sphere Forming Cells) (HT29 cells [5]): significantly reduce the number of HT29 cells; survival and chemoresistance of stem cells (HT29 cells [6]): significantly reduces the survival and chemoresistance of stem cells |

From US20240252658A1, “BIFUNCTIONAL PROTAC-TYPE COMPOUNDS TARGETING PXR, METHOD FOR PREPARING SAME AND THERAPEUTIC USE THEREOF” (Centre National de la Recherche Scientifique, priority 2021, published 2024)
